{"source": "patent US12712053B2", "about": "“Determining the stability of a substance or substance mixture” (BIONORICA SE, priority 2022, dated 2026)", "key": {"HEK295 cells": {"test_system": "HEK295 cells", "conditions": "for Main test: maximum Euclidian distance: NIR, plateau value of curve fit", "source_text": "The subject of the investigation was: • HEK295 cells, provided by Microbify, in a concentration of 2.2*10^5 cells/ml in medium, grown confluently, i.e. adherently grown cells that have formed a continuous monolayer/cell layer, in the NIR measuring vessels with transflectance stamp made of stainless steel from BrukerOptics • Use of nutrient medium DMEM (Dulbecco's Modified Eagle's Medium), with high glucose content, HEPES buffer, without phenol red indicator. Medium was purchased ready-to-use from ThermoFisher, catalog number 21063045, and mixed with 10% fetal calf serum (v/v) and 1% penicillin-streptomycin solution (v/v). • Cell culture for 48 hours before measurement directly in the measuring vessel • Addition of several concentrations of ethanol: 0% (control), 3%, 6% (each v/v). […] Before the experiment began, the cells were confluent, i.e. 100% viable • Measurement of cell changes via NIR over a period of […]\nThe measuring instrument used was a near-infrared spectroscopy device microPHAZIR GP (Thermo Fisher Scientific Inc.) with a wave number range: 6266 cm^−1 to 4172 cm^−1\nData pretreatment of the NIR spectra: No special pretreatment was carried out, spectra were processed directly.\nThe following calculation parameters were chosen: Euclidean distance\nThe cells were removed from the incubator and treated with a chemical stress factor (ethanol) at the concentrations mentioned. Three independent replicates were prepared with 0%, 3% and 6% ethanol and in a narrow measured at intervals of time (every 2 minutes) over a total period of 6 hours via NIR.\nFrom the measured spectra, the Euclidean distances were calculated according to the method of the invention, averaged per measurement time and the fitting of kinetic curves (cf. Application example 3; identical procedure). […] The data points are the mean values of 3 independent replicates, each measured 3 times, thus there are 9 measurement points per point. The error bars are the standard error of the mean. Also shown are the determination points for Km (time at which 50% of the plateau value was reached), K90 (time at which 90% of the plateau value was reached), and K95 (time at which 95% of the plateau value was reached)."}, "in vitro": {"test": "in vitro", "conditions": "human, HEK295 cells"}}, "note": "Where two headings read alike, the source gives them in different places.", "data": [{"smiles": "CCO", "note": "[ethanol]", "values": [{"measurement": "Km (time at which 50% of the plateau value was reached)", "setting": "HEK295 cells; 3% EtOH", "result": "~ 13 min"}, {"measurement": "Main test: maximum Euclidian distance", "setting": "HEK295 cells; 3% ethanol (v/v)", "result": 0.194}, {"measurement": "Km (time at which 50% of the plateau value was reached)", "setting": "HEK295 cells; 6% EtOH", "result": "~ 11 min"}, {"measurement": "Main test: maximum Euclidian distance", "setting": "HEK295 cells; 6% ethanol (v/v)", "result": 0.272}, {"measurement": "viability at 2.5 % ethanol", "setting": "in vitro", "result": 68, "unit": "%"}, {"measurement": "viability at 3 % ethanol", "setting": "in vitro", "result": 70.8, "unit": "%"}, {"measurement": "viability at 5 % ethanol", "setting": "in vitro", "result": 65.5, "unit": "%"}, {"measurement": "viability at 6 % ethanol", "setting": "in vitro", "result": 41.4, "unit": "%"}, {"measurement": "viability at 7.5 % ethanol", "setting": "in vitro", "result": 22.5, "unit": "%"}, {"measurement": "viability at 10 % ethanol", "setting": "in vitro", "result": 0, "unit": "%"}]}]}
